Measurements taken from patent publication US20260242419A1, “A CYCLIC PEPTIDE FOR TRAPPING INTERLEUKIN-1 BETA” (Merck Sharp & Dohme LLC, priority 2023, published 2026).
Starred links: 1 amine or outer side, 2 acyl side, 3 side chain; linkers in the order of their positions; H or OH if unused. Non-standard residues stand in square brackets, D forms with d. Residues, ends and D or L forms follow the SMILES beside them. Phe(4-(5-CO2H-2-pyrimidyl)) = N[C@@H](Cc1ccc(-c2ncc(C(=O)O)cn2)cc1)C(=O)O; Phe(4-(4-Ac-piperazinyl)) = CC(=O)N1CCN(c2ccc(C[C@H](N)C(=O)O)cc2)CC1; Trp(βS-Me,4-F) = C[C@@H](c1c[nH]c2cccc(F)c12)[C@H](N)C(=O)O; Bip(4'-COOH) = N[C@@H](Cc1ccc(-c2ccc(C(=O)O)cc2)cc1)C(=O)O; dPro(4R-Bzl(4-F)) = O=C(O)[C@H]1C[C@@H](Cc2ccc(F)cc2)CN1; X14 = O=C([C@H]1[C@@H](Cc2ccccc2)CCN1[*:1])[*:2]; X5 = O=C([C@H]1C[C@@H](Cc2ccccc2)CN1[*:1])[*:2]; Ala(pyrimidin-5-yl) = N[C@@H](Cc1cncnc1)C(=O)O; Phe(4-COOH) = N[C@@H](Cc1ccc(C(=O)O)cc1)C(=O)O; Pro(cis-4-F) = O=C(O)[C@@H]1C[C@H](F)CN1; 2Pal = N[C@@H](Cc1ccccn1)C(=O)O; 3Pal = N[C@@H](Cc1cccnc1)C(=O)O; 4Pal = N[C@@H](Cc1ccncc1)C(=O)O; Dab = NCC[C@H](N)C(=O)O; Aib = CC(C)(N)C(=O)O

Biological target: T1, IL-1β (Homo sapiens, UniProt P01584)
T1 construct: purchased BioLegend 579404
T1 sequence (P01584 117-269): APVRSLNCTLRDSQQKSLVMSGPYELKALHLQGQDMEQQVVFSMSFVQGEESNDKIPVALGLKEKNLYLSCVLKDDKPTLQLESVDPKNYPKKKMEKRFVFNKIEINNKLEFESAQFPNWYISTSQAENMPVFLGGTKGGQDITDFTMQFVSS
Experiment: IL-6 assay in MRC5 cells: inhibition of IL-1β induced IL-6 secretion (AlphaLISA)
Assay type: cell-based
Conditions: inhibition of IL-1β induced IL-6 secretion in MRC5 cells; read-out: MRC5 IC50
Procedure: Procedure for IL-6 Assay in MRC5 Cells
The inhibition of IL-1β induced IL-6 secretion was evaluated in MRC5 cells. Recombinant human IL-1β (BioLegend 579404) at 2λ EC80 concentration was prepared in seeding medium. EMEM (ATCC 30-2003) with 0.025% BSA (Sigma A9576), 1×penicillin/streptomycin (Gibco 15070-063), 1×NEAA (Gibco 11140-050), 1×GlutaMax (Gibco 35050-061), and 1×sodium pyruvate (Gibco 11360-070), 20 μL of IL-1β was added to a 384-well collagen-coated plate (Corning 354664) and pre-incubated at ambient temperature for 1 hour with 200 nL of compound dispensed using an ECHO 555 liquid handler. Human lung fibroblast MRC5 cells (ATCC CCL-171) were added at a density of 3000 cells/20 μL per well. The cells were prepared by passaging three times in growth medium, EMEM (ATCC 30-2003) with 10% fetal bovine serum (Gibco 16140-071), 1×penicillin/streptomycin (Gibco 15070-063), 1×NEAA (Gibco 11140-050), 1×GlutaMax (Gibco 35050-061), and 1×sodium pyruvate (Gibco 11360-070) in collagen-coated T175 flasks (Greiner 661950) and harvested in seeding medium after 5 minutes of 0.25% trypsin-EDTA (Gibco 25200-056) digestion. The 384-well collagen-coated plate, containing a final volume of 40 μL, was incubated at 37° C., 5% CO2 overnight. 5 μL of the conditioned medium was transferred to a 384-well AlphaLISA plate (PerkinElmer 6005350) for detection of IL-6 using the human AlphaLISA IL-6 kit (PerkinElmer AL223F) as per the manufacturer's protocol. 20 μL of the acceptor bead/biotinylated antibody mix was added to the 384-well AlphaLISA plate and incubated for 1 hour at ambient temperature. The donor bead mix was protected from light and 25 μL was added to the plate and incubated for 30 minutes at ambient temperature. The AlphaLISA plate was read on an EnVision multimode plate reader (Perkin Elmer model 2104) using the AlphaScreen setting (laser exc at 680 nm and emis at […]). Dose response curves and IC50 values were analyzed using a 4-parameter logistic equation in Spotfire software (Tibco, Palo Alto, CA).

Row | IC50 [nM] | Compound
1 | 0.023 | C[C@@H](c1c[nH]c2cccc(F)c12)[C@@H]1NC(=O)[C@@H]2C[C@H](F)CN2C(=O)CNC(=O)[C@H](Cc2ccc(C(=O)O)cc2)NC(=O)[C@H](Cc2ccncc2)NC(=O)[C@H](Cc2ccc(-c3ccc(C(=O)O)cc3)cc2)NC(=O)[C@H]2[C@@H](Cc3ccccc3)CCN2C(=O)CNC(=O)[C@H](CO)NC(=O)[C@H](CCC(N)=O)NC(=O)[C@H](Cc2cncnc2)NC(=O)C(C)(C)NC(=O)[C@H](Cc2c[nH]c3ccccc23)NC(=O)[C@H](CCC(=O)O)NC(=O)C(C)(C)NC1=O [Example 28] (cyclo([Bip(4'-COOH)][4Pal][Phe(4-COOH)]G[Pro(cis-4-F)][Trp(βS-Me,4-F)][Aib]EW[Aib][Ala(pyrimidin-5-yl)]QSG[X14]))
2 | 0.026 | C[C@@H](c1c[nH]c2cccc(F)c12)[C@@H]1NC(=O)[C@@H]2C[C@H](F)CN2C(=O)CNC(=O)[C@H](Cc2ccc(C(=O)O)cc2)NC(=O)[C@H](Cc2ccncc2)NC(=O)[C@H](Cc2ccc(-c3ccc(C(=O)O)cc3)cc2)NC(=O)[C@H]2C[C@@H](Cc3ccccc3)CN2C(=O)CNC(=O)[C@H](CO)NC(=O)[C@H](CCC(N)=O)NC(=O)[C@H](Cc2cncnc2)NC(=O)C(C)(C)NC(=O)[C@H](Cc2c[nH]c3ccccc23)NC(=O)[C@H](CCC(=O)O)NC(=O)C(C)(C)NC1=O [Example 30] (cyclo([Bip(4'-COOH)][4Pal][Phe(4-COOH)]G[Pro(cis-4-F)][Trp(βS-Me,4-F)][Aib]EW[Aib][Ala(pyrimidin-5-yl)]QSG[X5]))
3 | 0.049 | C[C@@H](c1c[nH]c2cccc(F)c12)[C@@H]1NC(=O)[C@@H]2C[C@H](F)CN2C(=O)CNC(=O)[C@H](Cc2ccc(C(=O)O)cc2)NC(=O)[C@H](Cc2ccncc2)NC(=O)[C@H](Cc2ccc(-c3ccc(C(=O)O)cc3)cc2)NC(=O)[C@H]2C[C@@H](Cc3ccc(F)cc3)CN2C(=O)CNC(=O)[C@H](CO)NC(=O)[C@H](CCC(N)=O)NC(=O)[C@H](CCCNC(=N)N)NC(=O)C(C)(C)NC(=O)[C@H](Cc2c[nH]c3ccccc23)NC(=O)[C@H](CCC(=O)O)NC(=O)C(C)(C)NC1=O [Example 32] (cyclo([Bip(4'-COOH)][4Pal][Phe(4-COOH)]G[Pro(cis-4-F)][Trp(βS-Me,4-F)][Aib]EW[Aib]RQSG[dPro(4R-Bzl(4-F))]))
4 | 0.033 | C[C@@H](c1c[nH]c2cccc(F)c12)[C@@H]1NC(=O)[C@@H]2C[C@H](F)CN2C(=O)CNC(=O)[C@H](Cc2ccc(C(=O)O)cc2)NC(=O)[C@H](Cc2ccncc2)NC(=O)[C@H](Cc2ccc(-c3ccc(C(=O)O)cc3)cc2)NC(=O)[C@H]2C[C@@H](Cc3ccc(F)cc3)CN2C(=O)CNC(=O)[C@H](CCN)NC(=O)[C@H](CCC(N)=O)NC(=O)[C@H](CCCNC(=N)N)NC(=O)C(C)(C)NC(=O)[C@H](Cc2c[nH]c3ccccc23)NC(=O)[C@H](CCC(=O)O)NC(=O)C(C)(C)NC1=O [Example 33] (cyclo([Bip(4'-COOH)][4Pal][Phe(4-COOH)]G[Pro(cis-4-F)][Trp(βS-Me,4-F)][Aib]EW[Aib]RQ[Dab]G[dPro(4R-Bzl(4-F))]))
5 | 0.032 | C[C@@H](c1c[nH]c2cccc(F)c12)[C@@H]1NC(=O)[C@@H]2C[C@H](F)CN2C(=O)CNC(=O)[C@H](Cc2ccc(C(=O)O)cc2)NC(=O)[C@H](Cc2ccncc2)NC(=O)[C@H](Cc2ccc(-c3ccc(C(=O)O)cc3)cc2)NC(=O)[C@H]2C[C@@H](Cc3ccc(F)cc3)CN2C(=O)CNC(=O)[C@H](CO)NC(=O)[C@H](CCC(N)=O)NC(=O)[C@H](Cc2cccnc2)NC(=O)C(C)(C)NC(=O)[C@H](Cc2c[nH]c3ccccc23)NC(=O)[C@H](CCC(=O)O)NC(=O)C(C)(C)NC1=O [Example 34] (cyclo([Bip(4'-COOH)][4Pal][Phe(4-COOH)]G[Pro(cis-4-F)][Trp(βS-Me,4-F)][Aib]EW[Aib][3Pal]QSG[dPro(4R-Bzl(4-F))]))
6 | 0.049 | C[C@@H](c1c[nH]c2cccc(F)c12)[C@@H]1NC(=O)[C@@H]2C[C@H](F)CN2C(=O)CNC(=O)[C@H](Cc2ccc(C(=O)O)cc2)NC(=O)[C@H](Cc2ccncc2)NC(=O)[C@H](Cc2ccc(-c3ccc(C(=O)O)cc3)cc2)NC(=O)[C@H]2C[C@@H](Cc3ccc(F)cc3)CN2C(=O)CNC(=O)[C@H](CCCNC(=N)N)NC(=O)[C@H](CCC(N)=O)NC(=O)[C@H](Cc2ccccc2)NC(=O)C(C)(C)NC(=O)[C@H](Cc2c[nH]c3ccccc23)NC(=O)[C@H](CCC(=O)O)NC(=O)C(C)(C)NC1=O [Example 35] (cyclo([Bip(4'-COOH)][4Pal][Phe(4-COOH)]G[Pro(cis-4-F)][Trp(βS-Me,4-F)][Aib]EW[Aib]FQRG[dPro(4R-Bzl(4-F))]))
7 | 0.054 | C[C@@H](c1c[nH]c2cccc(F)c12)[C@@H]1NC(=O)[C@@H]2C[C@H](F)CN2C(=O)CNC(=O)[C@H](Cc2ccc(C(=O)O)cc2)NC(=O)[C@H](Cc2ccncc2)NC(=O)[C@H](Cc2ccc(-c3ccc(C(=O)O)cc3)cc2)NC(=O)[C@H]2C[C@@H](Cc3ccc(F)cc3)CN2C(=O)CNC(=O)[C@H](CO)NC(=O)[C@H](CCC(N)=O)NC(=O)[C@H](Cc2ccccn2)NC(=O)C(C)(C)NC(=O)[C@H](Cc2c[nH]c3ccccc23)NC(=O)[C@H](CCC(=O)O)NC(=O)C(C)(C)NC1=O [Example 36] (cyclo([Bip(4'-COOH)][4Pal][Phe(4-COOH)]G[Pro(cis-4-F)][Trp(βS-Me,4-F)][Aib]EW[Aib][2Pal]QSG[dPro(4R-Bzl(4-F))]))
8 | 0.033 | CC(=O)N1CCN(c2ccc(C[C@@H]3NC(=O)[C@H]4C[C@@H](Cc5ccc(F)cc5)CN4C(=O)CNC(=O)[C@H](CCN)NC(=O)[C@H](CCC(N)=O)NC(=O)[C@H](Cc4cncnc4)NC(=O)C(C)(C)NC(=O)[C@H](Cc4c[nH]c5ccccc45)NC(=O)[C@H](CCC(=O)O)NC(=O)C(C)(C)NC(=O)[C@H]([C@@H](C)c4c[nH]c5cccc(F)c45)NC(=O)[C@@H]4C[C@H](F)CN4C(=O)CNC(=O)[C@H](Cc4ccc(C(=O)O)cc4)NC(=O)[C@H](Cc4ccncc4)NC3=O)cc2)CC1 [Example 37] (cyclo([Phe(4-(4-Ac-piperazinyl))][4Pal][Phe(4-COOH)]G[Pro(cis-4-F)][Trp(βS-Me,4-F)][Aib]EW[Aib][Ala(pyrimidin-5-yl)]Q[Dab]G[dPro(4R-Bzl(4-F))]))
9 | 0.041 | C[C@@H](c1c[nH]c2cccc(F)c12)[C@@H]1NC(=O)[C@@H]2C[C@H](F)CN2C(=O)CNC(=O)[C@H](Cc2ccc(C(=O)O)cc2)NC(=O)[C@H](Cc2ccncc2)NC(=O)[C@H](Cc2ccc(-c3ncc(C(=O)O)cn3)cc2)NC(=O)[C@H]2C[C@@H](Cc3ccc(F)cc3)CN2C(=O)CNC(=O)[C@H](CCN)NC(=O)[C@H](CCC(N)=O)NC(=O)[C@H](Cc2cncnc2)NC(=O)C(C)(C)NC(=O)[C@H](Cc2c[nH]c3ccccc23)NC(=O)[C@H](CCC(=O)O)NC(=O)C(C)(C)NC1=O [Example 38] (cyclo([Phe(4-(5-CO2H-2-pyrimidyl))][4Pal][Phe(4-COOH)]G[Pro(cis-4-F)][Trp(βS-Me,4-F)][Aib]EW[Aib][Ala(pyrimidin-5-yl)]Q[Dab]G[dPro(4R-Bzl(4-F))]))

Row | Compound | IC50 [nM]
10 | C[C@@H](c1c[nH]c2cccc(F)c12)[C@@H]1NC(=O)[C@@H]2C[C@H](F)CN2C(=O)CNC(=O)[C@H](Cc2ccc(C(=O)O)cc2)NC(=O)[C@H](Cc2ccncc2)NC(=O)[C@H](Cc2ccc(-c3ccc(C(=O)O)cc3)cc2)NC(=O)[C@H]2C[C@@H](Cc3ccccc3)CN2C(=O)CNC(=O)[C@H](CCN)NC(=O)[C@H](CCC(N)=O)NC(=O)[C@H](Cc2cncnc2)NC(=O)C(C)(C)NC(=O)[C@H](Cc2c[nH]c3ccccc23)NC(=O)[C@H](CCC(=O)O)NC(=O)C(C)(C)NC1=O [Example 29] (cyclo([Bip(4'-COOH)][4Pal][Phe(4-COOH)]G[Pro(cis-4-F)][Trp(βS-Me,4-F)][Aib]EW[Aib][Ala(pyrimidin-5-yl)]Q[Dab]G[X5])) | 0.019
11 | C[C@@H](c1c[nH]c2cccc(F)c12)[C@@H]1NC(=O)[C@@H]2C[C@H](F)CN2C(=O)CNC(=O)[C@H](Cc2ccc(C(=O)O)cc2)NC(=O)[C@H](Cc2ccncc2)NC(=O)[C@H](Cc2ccc(-c3ccc(C(=O)O)cc3)cc2)NC(=O)[C@H]2C[C@@H](Cc3ccccc3)CN2C(=O)CNC(=O)[C@H](CCN)NC(=O)[C@H](CCC(N)=O)NC(=O)[C@H](Cc2cncnc2)NC(=O)C(C)(C)NC(=O)[C@H](Cc2c[nH]c3ccccc23)NC(=O)[C@H](CCC(=O)O)NC(=O)C(C)(C)NC1=O [Example 31] (cyclo([Bip(4'-COOH)][4Pal][Phe(4-COOH)]G[Pro(cis-4-F)][Trp(βS-Me,4-F)][Aib]EW[Aib][Ala(pyrimidin-5-yl)]Q[Dab]G[X5])) | 0.024
